# Source: the supplement of paper PMC10307832
# How the values were obtained:
# Assay in all cases: relative viability (nuclei count vs DMSO), 5 days (fraction); higher = more cells survive
# [1] = compound: Cn1cc(-c2cnc3ccc4ccc(CS(=O)(=O)NCc5ccccn5)cc4c(=O)c3c2)cn1 [MK-8033] + Nc1nc2[nH]cc(CCc3ccc(C(=O)N[C@@H](CCC(=O)O)C(=O)O)cc3)c2c(=O)[nH]1 [Pemetrexed] (partner 0.2 µM)
# How it was run: (§1)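 Lung cancer cell lines in 1536-well plates got either a single drug or a fixed anchor-drug dose together with five library-drug doses (not always all listed) in √10 steps, by pin tool, on the day after seeding. Nuclei were counted after 5 days, and relative viability is the treated-to-vehicle ratio of nuclei counts. Values are medians of duplicate plates.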
# [2] = compound: CC[C@@H](C)CNCC(=O)N1CCC2=C([C@@H]1COC3=CC=CC(=C3)C)C=CS2 [RU-SKI 43] + CC1(C)CCC(c2ccc(Cl)cc2)=C(CN2CCN(c3ccc(C(=O)NS(=O)(=O)c4ccc(N[C@H](CCN5CCOCC5)CSc5ccccc5)c(S(=O)(=O)C(F)(F)F)c4)cc3)CC2)C1 [Navitoclax] (partner 0.5 µM)
# How it was run: as §1
# [3] = compound: CCc1c2c(nc3ccc(OC(=O)N4CCC(N5CCCCC5)CC4)cc13)-c1cc3c(c(=O)n1C2)COC(=O)[C@]3(O)CC [Irinotecan] + CC1(C)CCC(c2ccc(Cl)cc2)=C(CN2CCN(c3ccc(C(=O)NS(=O)(=O)c4ccc(N[C@H](CCN5CCOCC5)CSc5ccccc5)c(S(=O)(=O)C(F)(F)F)c4)cc3)CC2)C1 [Navitoclax] (partner 0.5 µM)
# How it was run: as §1
# [4] = compound: CCc1c2c(nc3ccc(OC(=O)N4CCC(N5CCCCC5)CC4)cc13)-c1cc3c(c(=O)n1C2)COC(=O)[C@]3(O)CC [Irinotecan] + CC(=O)c1c(C)c2cnc(Nc3ccc(N4CCNCC4)cn3)nc2n(C2CCCC2)c1=O [Palbociclib] (partner 0.5 µM)
# How it was run: as §1
Cell Line,relative viability ([1]; first compound 0.02 µM),relative viability ([1]; first compound 0.06325 µM),relative viability ([1]; first compound 0.2 µM),relative viability ([1]; first compound 0.6325 µM),relative viability ([1]; first compound 2 µM),relative viability ([2]; first compound 0.1 µM),relative viability ([2]; first compound 0.3162 µM),relative viability ([2]; first compound 1 µM),relative viability ([2]; first compound 3.162 µM),relative viability ([2]; first compound 10 µM),relative viability ([3]; first compound 0.6325 µM),relative viability ([3]; first compound 2 µM),relative viability ([3]; first compound 6.325 µM),relative viability ([3]; first compound 20 µM),relative viability ([4]; first compound 0.6325 µM),relative viability ([4]; first compound 2 µM),relative viability ([4]; first compound 6.325 µM),relative viability ([4]; first compound 20 µM)
NCI-H596,0.463,0.436,0.489,0.506,0.53,0.896,0.833,0.994,1.06,1.01,0.932,0.752,0.412,0.443,,,,
NCI-H322M,0.63,0.59,0.56,0.599,0.621,1.15,1.4,1.23,1.39,1.15,0.733,0.453,0.348,0.338,0.527,0.502,0.458,0.336
NCI-H358,0.165,0.181,0.158,0.167,0.164,,,,,,,,,,0.123,0.143,0.108,0.0947
NCI-H1648,0.733,,0.538,0.81,0.835,,,,,,,,,,0.254,0.303,0.346,0.355
NCI-H1395,0.921,0.758,0.693,0.914,0.815,1.15,1.15,1.32,1.14,1.02,,0.677,0.521,0.344,,0.572,0.476,0.284
